Test results taken from PMC9182007, “Statistical Methods in the Study of Protein Binding and Its Relationship to Drug Bioavailability in Breast Milk” (Molecules, 2022).
Read-outs that look alike come from different tables or passages of the source.

How the values were obtained:
[1] = biological target: human serum albumin (HSA) (Homo sapiens, UniProt P02768); details: pH 7.4
[2] = HPLC on immobilized artificial membrane column (HPLCIAM); assay type: physicochemical; details: for log k IAM: Table S5, IAM column, pH 7.4; for k IAM: Table S5, retention factor, IAM column, phosphate buffer pH 7.4/acetonitrile 80:20; for log kIAM / kIAM: Table S9, external group
[3] = NP TLC on non-impregnated control plates; assay type: physicochemical; details: for CNP (Rf, control NP plate): Table S3, non-impregnated NP plate, acetonitrile/acetate buffer pH 7.4/methanol 60:20:20; for CNP (Rf value from the non-impregnated NP plate, control): Table S8, external group
[4] = RP TLC on non-impregnated control plates; assay type: physicochemical; details: Table S4, non-impregnated RP plate; acetonitrile/acetate buffer pH 7.4/methanol 60:20:20
[5] = test system: plasma protein; details: ref DrugBank [7], cited from earlier work
[6] = Table S1, plasma protein binding given as fraction
[7] = Table S6, external group (n = 38), given as fraction

Chain of human serum albumin (HSA) (P02768 25-609): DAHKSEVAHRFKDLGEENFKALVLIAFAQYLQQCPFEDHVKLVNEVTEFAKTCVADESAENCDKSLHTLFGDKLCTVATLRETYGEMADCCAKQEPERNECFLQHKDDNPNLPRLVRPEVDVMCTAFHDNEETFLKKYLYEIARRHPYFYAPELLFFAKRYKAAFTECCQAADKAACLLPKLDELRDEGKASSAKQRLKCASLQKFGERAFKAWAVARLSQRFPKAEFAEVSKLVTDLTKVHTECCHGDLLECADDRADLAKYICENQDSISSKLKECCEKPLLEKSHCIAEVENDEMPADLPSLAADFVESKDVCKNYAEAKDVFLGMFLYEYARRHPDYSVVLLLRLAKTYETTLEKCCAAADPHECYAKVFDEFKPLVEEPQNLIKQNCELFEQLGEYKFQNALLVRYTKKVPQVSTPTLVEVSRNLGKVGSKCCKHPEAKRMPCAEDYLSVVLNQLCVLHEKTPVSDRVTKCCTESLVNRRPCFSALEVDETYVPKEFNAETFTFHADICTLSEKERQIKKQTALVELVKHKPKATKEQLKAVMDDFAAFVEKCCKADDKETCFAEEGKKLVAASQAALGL

In the case of `O=C(O)COC(=O)Cc1ccccc1Nc1c(Cl)cccc1Cl` [aceclofenac], the “k HSA” value [1] is reported as 55.89, the “log k IAM” value [2] is reported as 0.42 and the “k IAM” value [2] is reported as 2.63. For the same molecule, the “CNP (Rf, control NP plate)” value [3] was 0.89.
In the case of `CC(=O)CC(c1ccc([N+](=O)[O-])cc1)c1c(O)c2ccccc2oc1=O` (stereo not drawn) [acenocumarol], the “log k IAM” value [2] is reported as -0.27 and the “k IAM” value [2] is reported as 0.53.
For `Nc1nc2c(ncn2COCCO)c(=O)[nH]1` [aciclovir], the “CRP (Rf, control RP plate)” value [4] is listed as 0.99, the PB [5, 6] is listed as 0.21 and the “log k IAM” value [2] is listed as -1.04. For the same molecule, the “k IAM” value [2] was 0.09.
For `Cc1nnc2n1-c1ccc(Cl)cc1C(c1ccccc1)=NC2` [alprazolam], the PB [5, 6] is listed as 0.8, the “log k IAM” value [2] is listed as 0.50 and the “k IAM” value [2] is listed as 3.14.
In the case of `CCCCc1oc2ccccc2c1C(=O)c1cc(I)c(OCCN(CC)CC)c(I)c1` [amiodarone], the “CRP (Rf, control RP plate)” value [4] is reported as 0.33.
In the case of `CCOC(=O)C1=C(COCCN)NC(C)=C(C(=O)OC)C1c1ccccc1Cl` (stereo not drawn) [amlodipine], the “CRP (Rf, control RP plate)” value [4] is reported as 0.61, the “log k IAM” value [2] is reported as 2.00 and the “k IAM” value [2] is reported as 98.90.
For `CC(C)c1c(C(=O)Nc2ccccc2)c(-c2ccccc2)c(-c2ccc(F)cc2)n1CC[C@@H](O)C[C@@H](O)CC(=O)O` [atorvastatin], the “CRP (Rf, control RP plate)” value [4] was 0.80.
In the case of `Cn1c(=O)c2c(ncn2C)n(C)c1=O` [caffeine], the “log k IAM” value [2] is reported as -0.75, the “k IAM” value [2] is reported as 0.18 and the “CNP (Rf, control NP plate)” value [3] is reported as 0.82.
In the case of `C[C@H](CS)C(=O)N1CCC[C@H]1C(=O)O` [captopril], the “log k IAM” value [2] is reported as -2.19, the “k IAM” value [2] is reported as 0.01 and the “CNP (Rf, control NP plate)” value [3] is reported as 0.77.
In the case of `CCN(CC)CCCC(C)Nc1ccnc2cc(Cl)ccc12` (stereo not drawn) [chloroquine], the PB [5, 7] is listed as 0.55 and the “log kIAM” value [2] is listed as 0.49.
With `O=C(O)c1cn(C2CC2)c2cc(N3CCNCC3)c(F)cc2c1=O` [ciprofloxacin] the “CRP (Rf, control RP plate)” value [4] was 0.38 and the “CNP (Rf, control NP plate)” value [3] was 0.11.
For `CN(C)CCCC1(c2ccc(F)cc2)OCc2cc(C#N)ccc21` (stereo not drawn) [citalopram], the PB [5, 7] is given as 0.80, the kIAM [2] is given as 3.14 and the “log kIAM” value [2] is given as 0.50.
For `CN(C)CCCN1c2ccccc2CCc2ccc(Cl)cc21` [clomipramine], the kIAM [2] was 3.05 and the “log kIAM” value [2] was 0.48.
For `COc1cc2c(c(OC)c1OC)-c1ccc(OC)c(=O)cc1[C@@H](NC(C)=O)CC2` [colchicine], the PB [5, 7] is listed as 0.39.
In the case of `Clc1ccc2c(c1)CCc1cccnc1C2=C1CCNCC1` [desloratidine], the “log k IAM” value [2] is reported as 1.70 and the “k IAM” value [2] is reported as 50.45.
With `C[C@H]1O[C@@H](O[C@H]2[C@@H](O)C[C@H](O[C@H]3[C@@H](O)C[C@H](O[C@H]4CC[C@@]5(C)[C@H](CC[C@@H]6[C@@H]5C[C@@H](O)[C@]5(C)[C@@H](C7=CC(=O)OC7)CC[C@]65O)C4)O[C@@H]3C)O[C@@H]2C)C[C@H](O)[C@@H]1O` [digoxin] the “log k IAM” value [2] was 0.57 and the “k IAM” value [2] was 3.69.
For `COc1cc2nc(N3CCN(C(=O)C4COc5ccccc5O4)CC3)nc(N)c2cc1OC` (stereo not drawn) [doxazosin], the “CRP (Rf, control RP plate)” value [4] was 0.75, the “log k IAM” value [2] was -0.66 and the “k IAM” value [2] was 0.22.
For `CN(C)CCC[C@@]1(c2ccc(F)cc2)OCc2cc(C#N)ccc21` [escitalopram], the “CRP (Rf, control RP plate)” value [4] is listed as 0.55, the PB [5, 6] is listed as 0.56 and the “log k IAM” value [2] is listed as 1.51. For the same molecule, the “k IAM” value [2] was 32.08 and the “CNP (Rf, control NP plate)” value [3] was 0.42.
For `CC(C)(C(=O)O)c1ccc(C(O)CCCN2CCC(C(O)(c3ccccc3)c3ccccc3)CC2)cc1` (stereo not drawn) [fexofenadine], the “CRP (Rf, control RP plate)” value [4] was 0.85 and the “CNP (Rf, control NP plate)” value [3] was 0.61.
In the case of `CNCCC(Oc1ccc(C(F)(F)F)cc1)c1ccccc1` (stereo not drawn) [fluoxetine], the “CRP (Rf, control RP plate)” value [4] is listed as 0.54, the PB [5, 6] is listed as 0.945 and the “log k IAM” value [2] is listed as 1.82. The “k IAM” value [2] was 66.64 and the “CNP (Rf, control NP plate)” value [3] was 0.68.
For `COCCCC/C(=N\OCCN)c1ccc(C(F)(F)F)cc1` [fluvoxamine], the “CNP (Rf value from the non-impregnated NP plate, control)” value [3] was 0.34.
For `NS(=O)(=O)c1cc2c(cc1Cl)NCNS2(=O)=O` [hydrochlorotiazide], the kIAM [2] was 2.01 and the “log kIAM” value [2] was 0.30.
For `CC(C)Cc1ccc(C(C)C(=O)O)cc1` (stereo not drawn) [ibuprofen], the “log k IAM” value [2] was -0.07 and the “k IAM” value [2] was 0.86.
With `CC(C(=O)O)c1cccc(C(=O)c2ccccc2)c1` (stereo not drawn) [ketoprofen] the “log k IAM” value [2] was -0.71 and the “k IAM” value [2] was 0.20.
For `O=C(O)COCCN1CCN([C@H](c2ccccc2)c2ccc(Cl)cc2)CC1` [levocetrizine], the “log k IAM” value [2] was 0.58 and the “k IAM” value [2] was 3.82.
For `C[C@H]1COc2c(N3CCN(C)CC3)c(F)cc3c(=O)c(C(=O)O)cn1c23` [levofloxacin], the “CRP (Rf, control RP plate)” value [4] is listed as 0.27, the PB [5, 6] is listed as 0.31 and the “log k IAM” value [2] is listed as -0.04. For the same molecule, the “k IAM” value [2] was 0.90 and the “CNP (Rf, control NP plate)” value [3] was 0.17.
With `Cc1cnc(NC(=O)C2=C(O)c3ccccc3S(=O)(=O)N2C)s1` [meloxicam] the “log k IAM” value [2] was -0.31 and the “k IAM” value [2] was 0.49.
For `Nc1cc(N2CCCCC2)nc(N)[n+]1[O-]` [minoxidil], the PB [5, 7] is listed as 0.00, the kIAM [2] is listed as 1.96 and the “log kIAM” value [2] is listed as 0.29. The “CNP (Rf value from the non-impregnated NP plate, control)” value [3] was 0.43.
In the case of `CC(C)(O)c1ccccc1CC[C@@H](SCC1(CC(=O)O)CC1)c1cccc(/C=C/c2ccc3ccc(Cl)cc3n2)c1` [montelukast], the “CRP (Rf, control RP plate)” value [4] is reported as 0.70, the “log k IAM” value [2] is reported as 2.00 and the “k IAM” value [2] is reported as 99.10. For the same molecule, the “CNP (Rf, control NP plate)” value [3] was 0.95.
For `COc1ccc2cc([C@H](C)C(=O)O)ccc2c1` [naproxen], the “CRP (Rf, control RP plate)” value [4] was 0.88 and the “CNP (Rf, control NP plate)” value [3] was 0.92.
In the case of `CC1COc2c(N3CCN(C)CC3)c(F)cc3c(=O)c(C(=O)O)cn1c23` (stereo not drawn) [ofloxacin], the PB [5, 7] is listed as 0.32, the kIAM [2] is listed as 3.07 and the “log kIAM” value [2] is listed as 0.49. For the same molecule, the “CNP (Rf value from the non-impregnated NP plate, control)” value [3] was 0.24.
In the case of `O=C1Nc2ccc(Cl)cc2C(c2ccccc2)=NC1O` (stereo not drawn) [oxazepam], the “log k IAM” value [2] is reported as 0.68 and the “k IAM” value [2] is reported as 4.78.
For `CCN(CC)CC#CCOC(=O)C(O)(c1ccccc1)C1CCCCC1` (stereo not drawn) [oxybutinin], the “CRP (Rf, control RP plate)” value [4] was 0.29, the “log k IAM” value [2] was 1.70 and the “k IAM” value [2] was 49.68. The “CNP (Rf, control NP plate)” value [3] was 0.68.
For `CCCNCC(O)COc1ccccc1C(=O)CCc1ccccc1` (stereo not drawn) [propafenone], the “CRP (Rf, control RP plate)” value [4] was 0.56 and the “CNP (Rf, control NP plate)” value [3] was 0.57.
For `CCCc1cc(=O)[nH]c(=S)[nH]1` [propylthiouracil], the PB [5, 7] is listed as 0.82, the kIAM [2] is listed as 1.51 and the “log kIAM” value [2] is listed as 0.18.
For `C=C[C@H]1C[N@@]2CC[C@H]1C[C@H]2[C@H](O)c1ccnc2ccc(OC)cc12` [quinine], the kIAM [2] was 3.06 and the “log kIAM” value [2] was 0.49.
With `CCC(C)(C)C(=O)O[C@H]1C[C@@H](C)C=C2C=C[C@H](C)[C@H](CC[C@@H]3C[C@@H](O)CC(=O)O3)[C@H]21` [simvastatin] the “CRP (Rf, control RP plate)” value [4] was 0.66 and the “CNP (Rf, control NP plate)” value [3] was 0.19.
In the case of `CCN1CCCC1CNC(=O)c1cc(S(N)(=O)=O)ccc1OC` (stereo not drawn) [sulpiride], the “CRP (Rf, control RP plate)” value [4] is given as 0.85, the PB [5, 6] is given as 0.4 and the “log k IAM” value [2] is given as 0.22. The “k IAM” value [2] was 1.66 and the “CNP (Rf, control NP plate)” value [3] was 0.27.
For `CN1C(=O)C(O)N=C(c2ccccc2)c2cc(Cl)ccc21` (stereo not drawn) [temazepam], the “log k IAM” value [2] was 0.83 and the “k IAM” value [2] was 6.74.
In the case of `COc1cccc(C2(O)CCCCC2CN(C)C)c1` (stereo not drawn) [tramadol], the PB [5, 7] is given as 0.20.
In the case of `CC(=O)CC(c1ccccc1)c1c(O)c2ccccc2oc1=O` (stereo not drawn) [warfarin], the kIAM [2] is reported as 2.76 and the “log kIAM” value [2] is reported as 0.44.
For gentamycin, the kIAM [2] was 4.25, the “log kIAM” value [2] was 0.63 and the “CNP (Rf value from the non-impregnated NP plate, control)” value [3] was 0.96.
